Test results published in the NIST ThermoML archive (doi:10.1016/j.fluid.2008.02.001).
± gives the expanded uncertainty stated by the source.

Conditions: Liquid, Transpiration method

CCC(C)(C)OC(C)=O [1,1-dimethylpropyl acetate]
Conditions	vapor or sublimation pressure [kPa]
273.7 K	0.3855 ± 0.029
274 K	0.4017 ± 0.03
275.5 K	0.4449 ± 0.032
277.5 K	0.5063 ± 0.036
278.6 K	0.5244 ± 0.037
279.5 K	0.5659 ± 0.04
281.6 K	0.6399 ± 0.045
283.5 K	0.716 ± 0.051
283.6 K	0.7353 ± 0.052
286.6 K	0.878 ± 0.062
288.4 K	0.9539 ± 0.067
289.7 K	1.053 ± 0.074
292.7 K	1.218 ± 0.086
293.5 K	1.336 ± 0.095
295.8 K	1.492 ± 0.1
298.4 K	1.698 ± 0.13
298.8 K	1.785 ± 0.13
301.9 K	2.079 ± 0.15
303.4 K	2.33 ± 0.16
304.9 K	2.418 ± 0.17
307.9 K	2.829 ± 0.21
308.4 K	2.994 ± 0.22

CCCC(=O)OC(C)(C)CC [1,1-dimethylpropyl butanoate]
Conditions	vapor or sublimation pressure [kPa]
274.5 K	0.04772 ± 0.0035
276.5 K	0.05746 ± 0.0041
278.2 K	0.06508 ± 0.0046
278.6 K	0.06692 ± 0.0047
280.6 K	0.07832 ± 0.0056
282.6 K	0.09058 ± 0.0065
283.3 K	0.09732 ± 0.0069
285.6 K	0.1128 ± 0.0081
288.2 K	0.1456 ± 0.01
288.7 K	0.1441 ± 0.01
291.7 K	0.1788 ± 0.013
293.2 K	0.2021 ± 0.014
294.8 K	0.22 ± 0.016
297.4 K	0.2678 ± 0.019
298.2 K	0.2935 ± 0.021
300.4 K	0.3315 ± 0.024
303.2 K	0.4074 ± 0.029
303.5 K	0.402 ± 0.028
306.5 K	0.4906 ± 0.035
308.2 K	0.5588 ± 0.04
309.5 K	0.5946 ± 0.042

CCC(=O)OC(C)(C)CC [1,1-dimethylpropyl propanoate]
Conditions	vapor or sublimation pressure [kPa]
273.9 K	0.1147 ± 0.0082
274.9 K	0.123 ± 0.0088
276.9 K	0.1423 ± 0.01
278.9 K	0.1651 ± 0.012
281 K	0.1902 ± 0.013
283 K	0.2208 ± 0.016
286 K	0.2725 ± 0.019
289.1 K	0.3316 ± 0.024
292.2 K	0.4061 ± 0.029
295.2 K	0.4966 ± 0.035
298.2 K	0.5971 ± 0.042
301.2 K	0.7239 ± 0.051
304.3 K	0.8484 ± 0.06
307.4 K	1.025 ± 0.072
310.4 K	1.237 ± 0.087

CC(C)COC(=O)C(C)C [2-methylpropyl 2-methylpropanoate]
Conditions	vapor or sublimation pressure [kPa]
274.2 K	0.1054 ± 0.0076
276.2 K	0.1253 ± 0.009
278.2 K	0.1479 ± 0.011
283.2 K	0.2118 ± 0.015
288.2 K	0.2962 ± 0.021
293.2 K	0.4346 ± 0.031
298.2 K	0.6003 ± 0.043
303.3 K	0.8274 ± 0.059
308.4 K	1.137 ± 0.08
311.2 K	1.363 ± 0.096
313.4 K	1.497 ± 0.11
316.2 K	1.851 ± 0.13
319.2 K	2.224 ± 0.16

CCCCOC(=O)C(C)CC (stereo unspecified) [butanoic acid, 2-methyl-, butyl ester]
Conditions	vapor or sublimation pressure [kPa]
274.2 K	0.02305 ± 0.0016
276.2 K	0.02587 ± 0.0019
278.2 K	0.03181 ± 0.0023
280.2 K	0.0362 ± 0.0026
283.2 K	0.04723 ± 0.0034
288.1 K	0.06951 ± 0.005
293.1 K	0.1043 ± 0.0075
298.1 K	0.1517 ± 0.011
303.2 K	0.2142 ± 0.015
308.2 K	0.3099 ± 0.022
313.3 K	0.4305 ± 0.031
316.2 K	0.5454 ± 0.039
319.2 K	0.6694 ± 0.047

CCCCOC(=O)C(C)(C)C [butyl 2,2-dimethylpropanoate]
Conditions	vapor or sublimation pressure [kPa]
273.6 K	0.0462 ± 0.0035
273.9 K	0.04812 ± 0.0035
274.7 K	0.0517 ± 0.0037
276.5 K	0.06076 ± 0.0043
278.4 K	0.06784 ± 0.0049
282.6 K	0.09472 ± 0.0068
283.2 K	0.09954 ± 0.0071
285.6 K	0.1239 ± 0.0088
288.3 K	0.1447 ± 0.011
288.7 K	0.1514 ± 0.011
291.7 K	0.1872 ± 0.013
293.2 K	0.2073 ± 0.015
294.8 K	0.2343 ± 0.017
297.8 K	0.2886 ± 0.02
298.1 K	0.2847 ± 0.02
300.8 K	0.3473 ± 0.025
303.3 K	0.4149 ± 0.029
303.9 K	0.429 ± 0.03
307 K	0.5176 ± 0.036
308.3 K	0.5552 ± 0.039
309 K	0.596 ± 0.043
313.3 K	0.7473 ± 0.053
